# Measurements from patent publication US8067447B2, “Modulators of glucocorticoid receptor, AP-1, and/or NF-κB activity and use thereof” (Bristol-Myers Squibb Company, priority 2006, dated 2011).
# Tests used:
# [1] = biological target: T1, human glucocorticoid receptor (Homo sapiens, UniProt P04150); experiment: Glucocorticoid Receptor Binding Assay (I), fluorescence polarization competitor kit (Fluormone GS Red); conditions: purified human recombinant full-length GR 2 nM, 1 nM Fluormone GS Red, FP; read-out: GR (Ki, nM) (GR Binding Assay (I))
# T1 construct: purified human recombinant full-length glucocorticoid receptor (2 nM); purchased Invitrogen Part #2893
# T1 sequence (P04150 1-777): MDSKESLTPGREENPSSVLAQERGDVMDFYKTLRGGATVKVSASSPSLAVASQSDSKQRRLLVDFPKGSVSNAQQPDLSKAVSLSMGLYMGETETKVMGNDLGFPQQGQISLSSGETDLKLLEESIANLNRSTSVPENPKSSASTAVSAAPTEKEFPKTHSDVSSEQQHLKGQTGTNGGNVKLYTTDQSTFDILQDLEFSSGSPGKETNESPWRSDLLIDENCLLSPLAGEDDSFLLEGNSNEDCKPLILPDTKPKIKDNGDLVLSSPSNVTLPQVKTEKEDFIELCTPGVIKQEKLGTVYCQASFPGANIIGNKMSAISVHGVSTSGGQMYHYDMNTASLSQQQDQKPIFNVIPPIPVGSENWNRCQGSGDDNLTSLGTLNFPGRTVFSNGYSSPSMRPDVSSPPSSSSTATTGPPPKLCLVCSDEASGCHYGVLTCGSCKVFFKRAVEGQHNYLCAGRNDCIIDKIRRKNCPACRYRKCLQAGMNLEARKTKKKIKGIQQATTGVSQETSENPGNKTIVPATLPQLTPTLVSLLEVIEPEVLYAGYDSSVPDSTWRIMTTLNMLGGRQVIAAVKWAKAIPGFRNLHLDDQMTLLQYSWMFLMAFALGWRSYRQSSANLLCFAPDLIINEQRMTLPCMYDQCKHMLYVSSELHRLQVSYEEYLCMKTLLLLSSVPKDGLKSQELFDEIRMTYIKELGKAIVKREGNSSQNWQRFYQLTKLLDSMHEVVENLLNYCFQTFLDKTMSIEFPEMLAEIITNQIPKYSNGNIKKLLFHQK
# Protocol: Briefly, purified human recombinant full-length glucocorticoid receptor (2 nM) was mixed with fluorescently labeled glucocorticoid (1 nM Fluormone GS Red) in the presence or absence of test compound. After two hour incubation at room temperature in the dark, the fluorescence polarization (FP) of the samples was measured. […] Test compounds were analyzed in the concentration range from 8.5E-05 μM to 5 μM.
# [2] = test system: AP-1 induced transcriptional activity; experiment: Cellular Transrepressional Assay (AP-1 luciferase reporter in A549 cells, PMA-activated); type: cell-based; conditions: Homo sapiens, A549, 7 h, A549 cells with 7x AP-1 luciferase reporter, 10 ng/ml PMA, read-out: AP-1 (EC50, nM) (Cellular Transrepression Assay)
# Protocol: To measure the ability of test molecules to inhibit AP-1 induced transcriptional activity an A549 cell was utilized which was stably transfected with a plasmid containing 7× AP-1 DNA binding sites (pAP-1-Luc plasmid, Stratagene Co. La Jolla, Calif.) followed by the gene for luciferase. Cells were activated with 10 ng/ml of […] (PMA) plus or minus test molecules for 7 hours. After 7 hours a luciferase reagent was added to measure luciferase enzymatic activity in the cell. After a 10 minute incubation of luciferase reagent with cells, luminescence was measured in a TopCount luminescence counter. Repression of AP-1 activity was calculated as the percentage decrease in the signal induced by PMA alone. Test molecules were analyzed in the concentration range from 0.1 nM to 40 μM. EC50s were determined by using standard curve fitting methods such as Excel fit (Microsoft Co.).
Structure (SMILES),Ki [1] [nM],EC50 [2] [nM]
"CC(C)(C(=O)Nc1nc2ccccc2s1)C(c1ccccc1)c1ccc2c(cnn2-c2ccc(F)cc2)c1 (centres unmarked) [Example 23, N-(benzyl[d]thiazol-2-yl)-3-(1-(4-fluorophenyl)-1H-indazol-5-yl)-2,2-dimethyl-3-phenylpropanamide]",60,> 10000
"Cc1nc(NC(=O)C(C)(C)C(c2ccccc2)c2ccc3c(cnn3-c3ccc(F)cc3)c2)sc1C (centres unmarked) [Example 24, N-(4,5-dimethylthiazol-2-yl)-3-(1-(4-fluorophenyl)-1H-indazol-5-yl)-2,2-dimethyl-3-phenylpropanamide]",28,> 10000
"CCOC(=O)c1csc(NC(=O)C(C)(C)C(c2ccccc2)c2ccc3c(cnn3-c3ccc(F)cc3)c2)n1 (centres unmarked) [Example 27, ethyl 2-(3-(1-(4-fluorophenyl)-1H-indazol-5-yl)-2,2-dimethyl-3-phenylpropanamido)thiazol-4-carboxylate]",23,1310
"CC(C)(Cc1ccc2c(cnn2-c2ccc(F)cc2)c1)C(=O)Nc1nccs1 [Example 31, 3-(1-(4-Fluorophenyl)-1H-indazol-5-yl)-2,2-dimethyl-N-(thiazol-2-yl)propanamide]",98,> 10000
"CC(C)(Cc1ccc2c(cnn2-c2ccc(F)cc2)c1)C(=O)Nc1nncs1 [Example 32, 3-(1-(4-Fluorophenyl)-1H-indazol-5-yl)-2,2-dimethyl-N-(1,3,4-thiadiazol-2-yl)propanamide]",84,4320
"CC(C)(C(=O)Nc1nccs1)C(c1ccc2c(cnn2-c2ccc(F)cc2)c1)C1CCCC1 (centres unmarked) [Example 35, 3-Cyclopentyl-3-(1-(4-fluorophenyl)-1H-indazol-5-yl)-2,2-dimethyl-N-(thiazol-2-yl)propanamide]",21,82
"CC(C)(C(=O)Nc1nccs1)C(c1cc[n+]([O-])cc1)c1ccc2c(cnn2-c2ccc(F)cc2)c1 (centres unmarked) [Example 37, 3-(1-(4-Fluorophenyl)-1H-indazol-5-yl)-2,2-dimethyl-3-(pyridin-4-N-oxide-yl)-N-(thiazol-2-yl)propanamide]",301,3350
"CC(C)(C(=O)Nc1nccs1)C(c1ccccc1)c1ccc2c(cnn2CCO)c1 (centres unmarked) [Example 57, 3-(1-(2-hydrox-ethyl)-1H-indazol-5-yl)-2,2-dimethyl-3-phenyl-N-(thiazol-2-yl)propanamide]",20,205
"CN1CCC(n2ncc3cc(C(c4ccccc4)C(C)(C)C(=O)Nc4nccs4)ccc32)CC1 (centres unmarked) [Example 59, 2,2-dimethyl-3-(1-(1-methylpiper-idin-4-yl)-1H-indazol-5-yl)-3-phenyl-N-(thiazol-2-yl)propanamide]",543,> 10000
"CC(C)(C(=O)Nc1nccs1)C(c1ccccc1)c1ccc2c(cnn2CS(C)(=O)=O)c1 (centres unmarked) [Example 60, 2,2-dimethyl-3-(1-(methylsulfonylmethyl)-1H-indazol-5-yl)-3-phenyl-N-(thiazol-2-yl)propanamide]",29,> 10000
"CC(C)(C(=O)Nc1nncs1)C(c1ccccc1)c1ccc2c(cnn2CS(C)(=O)=O)c1 (centres unmarked) [Example 64, 2,2-dimethyl-3-(1-(methylsulfonylmethyl)-1H-indazol-5-yl)-3-phenyl-N-(1,3,4-thiadiazol-2-yl)propanamide]",65,> 10000
"CC(C)(C(=O)Nc1nncs1)C(c1ccccc1)c1ccc2c(cnn2CCO)c1 (centres unmarked) [Example 65, 3-(1-(2-hydroxyethyl)-1H-indazol-5-yl)-2,2-dimethyl-3-phenyl-N-(1,3,4-thiadiazol-2-yl)propanamide]",47,550
"CC(C)CCn1cc2cc(C(c3ccccc3)C(C)(C)C(=O)Nc3nncs3)ccc2n1 (centres unmarked) [Example 67, 3-(2-isopentyl-2H-indazol-5-yl)-2,2-dimethyl-3-phenyl-N-(1,3,4-thiadiazol-2-yl)propanamide]",25,532
"COCCCn1cc2cc(C(c3ccccc3)C(C)(C)C(=O)Nc3nncs3)ccc2n1 (centres unmarked) [Example 69, 3-(2-(3-methoxy-propyl)-2H-indazol-5-yl)-2,2-dimethyl-3-phenyl-N-(1,3,4-thiadiazol-2-yl)propanamide]",84,> 10000
COCCCn1ncc2cc(C(c3ccccc3)C(C)(C)C(=O)Nc3nncs3)ccc21 (centres unmarked) [Example 71],28,> 10000
"CC(C)(C(=O)Nc1nncs1)C(c1ccccc1)c1ccc2nn(Cc3ccccc3)cc2c1 (centres unmarked) [Example 73, 3-(2-benzyl-2H-indazol-5-yl)-2,2-dimethyl-3-phenyl-N-(1,3,4-thiadiazol-2-yl)propanamide]",46,> 10000
"CC(C)(C(=O)Nc1nncs1)C(c1ccccc1)c1ccc2c(cnn2CCc2ccccc2)c1 (centres unmarked) [Example 74, 2,2-dimethyl-3-(1-phenethyl-1H-indazol-5-yl)-3-phenyl-N-(1,3,4-thiadiazol-2-yl)propanamide]",152,> 10000

# Continued by falling Ki [1], values first:
Ki [1] [nM],EC50 [2] [nM],Structure (SMILES)
20,647,"CCOC(=O)Cc1csc(NC(=O)C(C)(C)C(c2ccccc2)c2ccc3c(cnn3-c3ccc(F)cc3)c2)n1 (centres unmarked) [Example 28, ethyl 2-(2-(3-(1-(4-fluorophenyl)-1H-indazol-5-yl)-2,2-dimethyl-3-phenylpropanamido)thiazol-4-yl)acetate]"
19,> 10000,"CC(C)(C(=O)Nc1nnc(C(F)(F)F)s1)C(c1ccccc1)c1ccc2c(cnn2-c2ccc(F)cc2)c1 (centres unmarked) [Example 25, 3-(1-(4-fluorophenyl)-1H-indazol-5-yl)-2,2-dimethyl-3-phenyl-N-(5-(trifluoromethyl)-1,3,4-thiadiazol-2-yl)propanamide]"
19,1020,"CC(C)Cn1ncc2cc(C(c3ccccc3)C(C)(C)C(=O)Nc3nncs3)ccc21 (centres unmarked) [Example 70, 3-(1-isobutyl-1H-indazol-5-yl)-2,2-dimethyl-3-phenyl-N-(1,3,4-thiadiazol-2-yl)propanamide]"
17,1020,"CC(C)(C(=O)Nc1nncs1)C(c1ccccc1)c1ccc2c(cnn2CCCO)c1 (centres unmarked) [Example 75, 3-(1-(3-hydroxypropyl)-1H-indazol-5-yl)-2,2-dimethyl-3-phenyl-N-(1,3,4-thiadiazol-2-yl)propanamide]"
16,404,"CC(C)(C(=O)Nc1ncc(Cl)s1)C(c1ccccc1)c1ccc2c(cnn2-c2ccc(F)cc2)c1 (centres unmarked) [Example 26, N-(5-chlorothiazol-2-yl)-3-(1-(4-fluorophenyl)-1H-indazol-5-yl)-2,2-dimethyl-3-phenylpropanamide]"
14,158,"CC(C)n1ncc2cc(C(c3ccccc3)C(C)(C)C(=O)Nc3nccs3)ccc21 (centres unmarked) [Example 61, 3-(1-isopropyl-1H-indazol-5-yl)-2,2-dimethyl-3-phenyl-N-(thiazol-2-yl)propanamide]"
14,1930,"CC(C)(C(=O)Nc1nncs1)C(c1ccccc1)c1ccc2c(cnn2Cc2ccccc2)c1 (centres unmarked) [Example 72, 3-(1-benzyl-1H-indazol-5-yl)-2,2-dimethyl-3-phenyl-N-(1,3,4-thiadiazol-2-yl)propanamide]"
10,177,"CC(C)(C(=O)Nc1nccs1)C(c1ccccc1)c1ccc2c(cnn2C2CCOCC2)c1 (centres unmarked) [Example 58, 2,2-dimethyl-3-phenyl-3-(1-(tetrahydro-2H-pyran-4-yl)-1H-indazol-5-yl)-N-(thiazol-2-yl)propanamide]"
9.8,87,"CCC(c1ccc2c(cnn2-c2ccc(F)cc2)c1)C(C)(C)C(=O)Nc1nccs1 (centres unmarked) [Example 39, 3-(1-(4-Fluorophenyl)-1H-indazol-5-yl)-2,2-dimethyl-N-(thiazol-2-yl)pentanamide]"
9,6150,CC(C)n1cc2cc(C(c3ccccc3)C(C)(C)C(=O)Nc3nccs3)ccc2n1 (centres unmarked) [Example 62]
7.8,126,"CC(C)(C(=O)Nc1nccs1)C(c1ccccc1)c1ccc2[nH]ncc2c1 (centres unmarked) [Example 29, 3-(1H-Indazol-5-yl)-2,2-dimethyl-3-phenyl-N-(thiazol-2-yl)propanamide]"
